US9567339B2, “Primary carboxamides as BTK inhibitors” (AbbVie Inc., priority 2013, dated 2017)
Where two headings read alike, the source gives them in different places.

Target: BTK, recombinant human catalytic domain (aa 393-659) (Homo sapiens (Human), UniProt Q06187)
Experiment: In vitro BTK kinase activity measured by time-resolved fluorescence resonance energy transfer (trFRET)
Assay type: biochemical
Details: read-out: Btk IC50
[1] = trFRET, 0.001 mM ATP, biotin-TYR1 peptide substrate

Chain of BTK, recombinant human catalytic domain (aa 393-659) (Q06187 393-659): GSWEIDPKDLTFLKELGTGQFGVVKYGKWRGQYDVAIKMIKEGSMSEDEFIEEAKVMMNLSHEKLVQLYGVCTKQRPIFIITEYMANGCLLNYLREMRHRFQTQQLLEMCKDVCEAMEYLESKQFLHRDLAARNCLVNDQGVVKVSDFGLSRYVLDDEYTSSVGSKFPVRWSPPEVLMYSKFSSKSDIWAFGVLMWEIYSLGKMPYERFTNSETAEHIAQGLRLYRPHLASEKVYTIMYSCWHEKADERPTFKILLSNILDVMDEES

Row | Compound | IC50 [1] [µM] | IC50 [µM]
1 | Cc1ccc(-c2cc3c(-c4ccsc4)ccc(C(N)=O)c3[nH]2)cc1 [A.8.10] | 0.1 to 1 | –
2 | Cc1c(NC(=O)CCN(C)C)cccc1-c1ccc(C(N)=O)c2[nH]c(C3=CCN(S(C)(=O)=O)CC3)cc12 [D.7.23] | – | < 0.1
3 | C=CC(=O)N1CC(N(C)c2ccc(C(N)=O)c3[nH]c(C4CCN(CCC)CC4)cc23)C1 [E.9.20] | – | < 0.1
4 | Cc1c(NC(=O)/C=C/c2cccnc2)cccc1-c1ccc(C(N)=O)c2[nH]ccc12 [D.8.4] | 0.1 to 1 | –
5 | C=CC(=O)N1CC([C@@H](C)c2ccc(C(N)=O)c3[nH]ccc23)C1 [28 (R), (R)-4-(1-(1-acryloylazetidin-3-yl)ethyl)-1H-indole-7-carboxamide] | < 0.1 | –
6 | Cc1c(N)cccc1-c1cnc(C(N)=O)c2[nH]ccc12 [Example 2, 4-(3-Amino-2-methylphenyl)-1H-pyrrolo[2,3-c]pyridine-7-carboxamide] | 1 to 10 | –
7 | CCNC(=O)/C=C\C(=O)Nc1cccc(-c2ccc(C(N)=O)c3[nH]ccc23)c1C [D.8.15] | < 0.1 | –
8 | Cc1c(-c2ccc(C(N)=O)c3[nH]c(-c4ccc(F)cc4)cc23)cccc1N1Cc2ccc(F)cc2C1=O [A.9.6] | < 0.1 | –
9 | C=C(C)C(=O)Nc1cccc(-c2ccc(C(N)=O)c3[nH]c(C4=CCN(S(C)(=O)=O)CC4)cc23)c1C [D.7.5] | – | < 0.1
10 | CNC(=O)/C=C/C(=O)Nc1cccc(-c2ccc(C(N)=O)c3[nH]ccc23)c1 [D.4.1] | 1 to 10 | –
11 | CS(=O)(=O)N1CC=C(c2cc3c(-c4cccc(OCc5nccs5)c4)ccc(C(N)=O)c3[nH]2)CC1 [A.4.4] | < 0.1 | –
12 | C=CC(=O)N1CC[C@@H](c2ccc(C(N)=O)c3[nH]c(-c4cnn(C)c4)cc23)C1 [E.9.49] | – | 0.1 to 1
13 | Cc1c(NC(=O)C(C)Cl)cccc1-c1ccc(C(N)=O)c2[nH]c(C3=CCN(S(C)(=O)=O)CC3)cc12 (stereo not drawn) [D.7.8] | – | < 0.1
14 | Cn1cc(-c2cc3c(N4CCC[C@@H](N5Cc6ccc(F)cc6C5=O)C4)ccc(C(N)=O)c3[nH]2)cn1 [O.1.18*] | – | 1 to 10
15 | Cc1ccc(-c2cc3c(Cc4c(Cl)cccc4Cl)ccc(C(N)=O)c3[nH]2)cc1 [U.1.1] | – | 1 to 10
16 | C=CC(=O)Nc1cccc(-c2ccc(C(N)=O)c3[nH]c(-c4cccc(C(N)=O)c4)cc23)c1C [A.1.25] | < 0.1 | –
17 | C=C(C)C(=O)Nc1c[nH]c2c(C(N)=O)ccc(-c3cccc(NC(=O)c4nccs4)c3C)c12 [D.3.4] | 1 to 10 | –
18 | C=CC(=O)Nc1cccc(-c2ccc(C(N)=O)c3[nH]c(-c4ccccc4)cc23)c1C [A.1.33] | < 0.1 | –
19 | CC(=O)N1CC=C(c2cc3c(-c4cccc(NC(=O)c5ccc(C(C)(C)C)cc5)c4C)ccc(C(N)=O)c3[nH]2)CC1 [A.3.3] | < 0.1 | –
20 | C=CC(=O)N1CC(N(C)c2ccc(C(N)=O)c3[nH]c(-c4ccnn4C)cc23)C1 [E.9.16] | – | < 0.1
21 | Cc1c(-c2ccc(C(N)=O)c3[nH]c(-c4cnn(C)c4)cc23)cccc1-n1cnc2ccc(F)cc2c1=O [A.10.2] | < 0.1 | –
22 | CCOC(=O)N1CC=C(c2cc3c(-c4cccc(-n5cnc6ccccc6c5=O)c4C)ccc(C(N)=O)c3[nH]2)C1 [E.6.1] | – | < 0.1
23 | C=C(CN1CCOCC1)C(=O)Nc1cccc(-c2ccc(C(N)=O)c3[nH]ccc23)c1 [D.6.2] | < 0.1 | –
24 | C=CC(=O)Nc1cc(OCc2ccccc2)cc(-c2ccc(C(N)=O)c3[nH]ccc23)c1 [E.1.14] | – | 1 to 10
25 | Cc1c(NC(=O)c2ccc(C3CC3)cc2)cccc1-c1ccc(C(N)=O)c2[nH]c(-c3cncnc3)cc12 [A.13.4] | 0.1 to 1 | –
26 | C=CC(=O)N1C[C@H](CO)C[C@H](c2ccc(C(N)=O)c3[nH]ccc23)C1 [E.9.47] | – | 0.1 to 1
27 | COC1CCCC(C(=O)Nc2cccc(-c3ccc(C(N)=O)c4[nH]c(C5=CCN(S(C)(=O)=O)CC5)cc34)c2C)C1 (stereo not drawn) [D.7.34] | – | < 0.1
28 | Cc1c(NC(=O)C2=CCCC2)cccc1-c1ccc(C(N)=O)c2[nH]c(C3=CCN(S(C)(=O)=O)CC3)cc12 [D.7.15] | – | < 0.1
29 | C=CC(=O)N1C[C@H]2CN(c3ccc(C(N)=O)c4[nH]ccc34)C[C@H]21 [E.9.42] | – | 0.1 to 1
30 | N#CCNS(=O)(=O)c1cccc(-c2ccc(C(N)=O)c3[nH]ccc23)c1 [A.6.1] | 1 to 10 | –
